Laboratory results from patent US7217534B2, “Methods of screening apoptosis modulating compounds, compounds identified by said methods and use of said compounds as therapeutic agents” (Institut Pasteur, priority 2002, dated 2007).

Assays:
[1] = tested on: IL-4-stimulated cells (TS1αβ murine T cell line); test: Cholesterol depletion, raft association of Bad and Lck by CTx-FITC confocal microscopy; format: cell-based; settings: 10 mM, 30 min, 37° C., serum-free medium
Procedure: A) IL-4-stimulated cells were serum-starved for 30 min and then treated with or without 10 mM M-β-CD for 30 min at 37° C. before incubation with CTx-FITC and anti-Bad or anti-Lck antibodies, followed by Cy3-labeled secondary antibody. Then, cells were analyzed by confocal microscopy. Similar results were obtained in two independent experiments. Single confocal sections show green (FITC) and red (Cy3) fluorescence. B) IL-4-stimulated cells were serum-starved for 30 min and then treated with or without 10 mM M-β-CD for 30 min at 37° C., then washed and transferred to complete medium supplemented with IL-4. At different times, apoptosis was measured. Sub G1 region of the fluorescence scale was used to determine the percentage of cells present in the initial step of apoptosis. Similar results were obtained in two independent experiments. White bars, control cells; grey bars, M-β-CD-treated cells. […]
IL-4-stimulated or -deprived cells were fixed with 1% paraformaidehyde for 5 min on ice, permeabilized and then incubated with CTx-FITC (20 min, 6 μg/ml) and anti-Bad antibody for 1 h in PBS-BSA. […] Finally, and after several washing steps, cells were incubated with methanol at −20° C. for 10 min, mounted wiht Vectashield medium, and analyzed by confocal microscopy. The program used for quantification of samples was Leica TSC NT version 1.5.451 (Leica, Lasertechnik, Heidelberg, Germany). […]

[2] = tested on: IL-4-stimulated cells (TS1αβ murine T cell line); test: Apoptosis by cell cycle analysis (sub-G1 region, propidium iodide flow cytometry); format: cell-based
Procedure: A) IL-4-stimulated cells were serum-starved for 30 min and then treated with or without 10 mM M-β-CD for 30 min at 37° C. before incubation with CTx-FITC and anti-Bad or anti-Lck antibodies, followed by Cy3-labeled secondary antibody. Then, cells were analyzed by confocal microscopy. Similar results were obtained in two independent experiments. Single confocal sections show green (FITC) and red (Cy3) fluorescence. B) IL-4-stimulated cells were serum-starved for 30 min and then treated with or without 10 mM M-β-CD for 30 min at 37° C., then washed and transferred to complete medium supplemented with IL-4. At different times, apoptosis was measured. Sub G1 region of the fluorescence scale was used to determine the percentage of cells present in the initial step of apoptosis. Similar results were obtained in two independent experiments. White bars, control cells; grey bars, M-β-CD-treated cells.
(§1) TS1αβ is a murine T cell line that can be propagated independently in IL-2, IL-4 or IL-9 Cells were cultured in RPMI-1640 as previously described (Pitton et al., 1993, Cytokine 5, 362–371). Murine rIL-4 or supernatant of a HeLa subline transfected with PKCRIL-4.neo was used as a source of murine IL-4. Fluorescein isothiocyanate (FITC-)-labeled cholera toxin (CTx) B subunit, CTx-Biotin and methyl-β-cyclodextrin (M-β-CD) were obtained from Sigma-Aldrich (St. Louis, Mo.). Cy3- and Cy2-conjugated secondary antibodies were purchased from Molecular Probes (Eugene, Oreg.). Anti-mitochondria serum (mito 2813, pyruvate dehydrogenase) was a gift from Dr A. Serrano (CNB, Madrid, Spain).
A total of 2×10^5 IL-4-stimulated cells treated with or without M-β-CD were washed, resuspended in PBS, permeabilized with 0.1% Nonidet P-40 and stained with 50 μg/ml propidium iodide (PI). At different times, samples were analyzed using a EpicsXL flow cytometer (Coulter, Hialeah, Fla.). Apoptosis was measured as the percentage of cells in the sub-G1 region of the fluorescence scale having an hypodiploid DNA content.
Given that exclusion of Bad from rafts was also observed in apoptotic IL-4-deprived cells (FIG. 3A), it was analyzed whether Bad association to rafts and its integrity was necessary for prevention of apoptosis. For this purpose, IL-4-stimulated cells were treated for 30 min with or without M-β-CD in serum-free medium, then washed, resuspended in IL-4-supplemented complete medium and analyzed for induction of apoptosis at different times (FIG. 4B). […] Eight hours upon treatment, the amount of apoptotic cells detected in treated and non treated cells were similar because addition of serum restores the lipid composition of the membrane.

Bad = test: Serine phosphorylation of Bad by immunoprecipitation and western blot; format: cell-based, murine; settings: anti-Bad serine 136, 112 and 155 blots, IL-4-stimulated cells
Source text: A) Cytoplasmic extracts from IL-4-stimulated or -deprived cells were immunoprecipitated with anti-Bad antibody and blotted with anti-Bad serine 136, 112 and 155. As internal control, the blot was developed with anti-Bad. Positive control for serine 112 and 136 phosphorylation, IL-2-stimulated cells; positive control for serine 155 phosphorylation of Bad, Bad-transfected COS cells (C). […] Molecular weight of the corresponding proteins is shown.
as §1, with “Spain). […]” for “Spain).”
Posttranslational modifications of Bad such as phosphorylation, and its role in Bad localization in rafts or mitochondria was further analyzed. […]

Row | Molecule | raft formation and association of Lck and Bad with rafts [1] | time of highest level of apoptosis after treatment ([2]; 30 min treatment in serum-free medium, then IL-4-supplemented complete medium) [h] | level of apoptosis compared with control non treated cells ([2]; 30 min treatment in serum-free medium, then IL-4-supplemented complete medium, different times) | amount of apoptotic cells in treated and non treated cells ([2]; eight hours upon treatment, serum added back) | serine phosphorylation of Bad (Bad) | level of apoptosis in IL-4-stimulated cells ([2]; control IL-4-stimulated cells versus IL-4-deprived cells, 4 h to 24 h)
1 | methyl-β-cyclodextrin [M-β-CD] | severe disruption of raft formation and association of Lck and Bad with rafts | 5 | stronger level of apoptosis | similar |  | 
2 | IL-4: Murine rIL-4 or supernatant of a HeLa subline transfected with PKCRIL-4.neo, used as source of murine IL-4 (protein, UniProt P07750 21-140, looked up) Interleukin-4: HIHGCDKNHLREIIGILNEVTGEGTPCTEMDVPNVLTATKNTTESELVCRASKVLRIFYLKHGKTPCLKKNSSVLMELQRLFRAFRCLDSSISCTMNESKSTSLKDFLESLKSIMQMDYS |  |  |  |  | induces serine 136 phosphorylation of Bad, but not serine 112 and 155 | no significant level of apoptosis
